Measured values as given in patent publication US20210292807A1, “METHOD FOR TESTING ANTIMICROBIAL SUSCEPTIBILITY” (priority 2017, published 2021).
Where “and” joins values, the source holds several entries; their conditions need not be identical. Identical values can stand only once. Like-named read-outs stand apart in the source and are kept apart here.

Tested on: Klebsiella isolates
Assay: Acoustic flow cytometry-assisted susceptibility test (FAST), MICFAST and S/NS, Klebsiella isolates
Format: cell-based, Klebsiella pneumoniae, Klebsiella oxytoca
Procedure: A 1 mL aliquot of bacterial suspension was centrifuged, washed and resuspended in 1 mL filtered Hank's Buffered Salt Solution (HBSS; comprising about 0.137 M NaCl, about 5.4 mM KCl, about 0.25 mM Na2HPO4, about 0.1 g Glucose, about 0.44 mM KH2PO4, 1.3 mM CaCl2), 1.0 mM MgSO4, about 1.3 mM CaCl2), 1.0 mM MgSO4, and about 4.2 mM NaHCO3) and diluted in series (e.g., in a 1:10 serial dilution) to a final 1:1000 dilution.
One μL (microliter) of SYTO 9 stain (e.g., ThermoFisher Scientific) working stock solution was added to the final dilution at a final concentration of 5 μM and incubated for 5 minutes before counting bacterial events by acoustic flow cytometer (AFC) (Attune, ThermoFisher, Eugene, Oreg., USA), which was used to prepare a standardised inoculum density for susceptibility testing.
An aliquot of bacterial suspension was added to 50 mL centrifuge tubes (Corning, N.Y.) containing 9 mL of pre-warmed (37° C.) filtered MHB to produce a final density of 5×10^5-1×10^6 bacteria per mL. This suspension was incubated at 37° C. with shaking at 100 RPM for 30 minutes to obtain an actively dividing culture. An aliquot of antibiotic working solution from the previously described dilution series (appropriate to the concentration tested) was then added to each tube before a further 30-minute incubation with shaking, during which time a microbroth dilution (MBD) plate was prepared for overnight incubation at 37° C. as previously described in Clinical and Laboratory Standards Institute (2015) Performance Standards for Antimicrobial Susceptibility Testing: Informational Supplement. CLSI document M100-S25. Clinical and Laboratory Standards Institute, 950, West Valley Road, Suite 2500, Wayne, Pa., 19087, USA.
One millilitre of bacterial suspension from each antibiotic concentration was harvested by centrifugation at 7800×g for 5 minutes, washed and diluted 1:10 in filtered HBSS in a light-impermeable microcentrifuge tube, then stained with SYTO 9 stain at a final concentration of 5 μM, and incubated for 5 min before AFC sampling. Hoechst 33342 dye (NucBlue, Thermo Fisher Scientific, Eugene, Oreg., USA) and a SYTO 9/propidium iodide (PI) combination (Thermo Fisher Scientific) were used in a series of replicate experiments.
The acoustic flow cytometer employed was Attune acoustic flow cytometer (Thermo Fisher Scientific), having installed therein a 488 nm blue laser with a 530/30 nm filter on the photomultiplier tube for measuring fluorescence of cells assayed. Alternatively, the Attune NxT acoustic flow cytometer (Thermo Fisher Scientific) can be employed. AFC was calibrated at the beginning of each acquisition session using fluorescently labelled size calibration beads, in accordance with the manufacturer's instructions (ThermoFisher Scientific). The AFC settings were as follows: Forward Scatter (FSC) voltage 3100, FSC threshold 4×1000 AND, blue laser 1 (BL1—530/30 nm) voltage 1900, BL1 threshold 1×1000 AND, high sensitivity, flow rate 25 μL/minute, and an acquisition volume of 125 μL. Acquisition was halted after either collection of 20,000 events across all gates, or after 3 minutes, with each sample acquired in technical triplicate.
Collected data was exported in the FCS 3.0 file format and analysed in Flow v10.0 (FlowJo LLC, Ashland, Oreg., USA) by a single user, blinded to the MIC results by BMD (MICBMD).
Subsequent to quantitative MICFAST determination, the acoustic flow cytometer data were re-analysed in silico to produce a limited sub-set for qualitative susceptibility determination. The six antibiotic dilutions (0 mg/L, 0.25 mg/L, 1 mg/L, 2 mg/L, 4 mg/L and 16 mg/L) most relevant to qualitative susceptibility assessment were used. In silico analysis was restricted to the first technical triplicate of each recorded sample. Gating strategies remained consistent, with the addition of a gate restricting analysis to only those events recorded in the first 60 seconds of acquisition.

[1] = K. pneumoniae isolate 18397, biological replicates
[2] = K. pneumoniae isolate 43292, biological replicates
[3] = K. pneumoniae isolate 43358, biological replicates
[4] = K. pneumoniae isolate 44271, biological replicates
[5] = K. pneumoniae isolate ATCC 700603, biological replicates
[6] = K. pneumoniae isolate ATCC BAA1705, biological replicates
[7] = K. pneumoniae isolate K1, biological replicates
[8] = K. pneumoniae isolate K14, biological replicates
[9] = K. pneumoniae isolate KS11, biological replicates

For C[C@@H](O)[C@H]1C(=O)N2C(C(=O)O)=C(S[C@@H]3CN[C@H](C(=O)N(C)C)C3)[C@H](C)[C@H]12 [meropenem], the MICFAST (K. pneumoniae ATCC 700603 (carbapenem susceptible control), limited clinical screen concentrations) was at most 0.25, the MICFAST (K. pneumoniae ATCC BAA1705 (carbapenem resistant control), limited clinical screen concentrations) was over 16 and the “FAST S/NS” value [1] was “S (S: MIC ≤2 mg/L)”. The MICFAST [1] was at most 0.25 mg/L, the “FAST S/NS” value [2] was “S (S: MIC ≤2 mg/L)” and the MICFAST [2] was at most 0.25 mg/L. For the same molecule, the “FAST S/NS” value [3] was “S (S: MIC ≤2 mg/L)”, the MICFAST [3] was at most 0.25 mg/L and the “FAST S/NS” value [4] was “S (S: MIC ≤2 mg/L)”. The MICFAST [4] was 0.5 mg/L, the “FAST S/NS” value [5] was “S (S: MIC ≤2 mg/L)” and the MICFAST [5] was at most 0.25 mg/L. For the same molecule, the “FAST S/NS” value [6] was “NS (NS: MIC >2 mg/L)”, the MICFAST [6] was 8 mg/L and the “FAST S/NS” value [7] was “NS (NS: MIC >2 mg/L)”. For the same molecule, the MICFAST [7] was 64 mg/L (2×) and 32 mg/L, the “FAST S/NS” value [8] was “NS (NS: MIC >2 mg/L)” and the MICFAST [8] was 256 mg/L. For the same molecule, the MICFAST (K. pneumoniae isolate K16 (IMP-4), rough colony variant) was 64 mg/L, the MICFAST (K. pneumoniae isolate K16 (IMP-4), smooth colony variant) was 2 mg/L and the MIC (K. pneumoniae isolate K16, subculture of Day 1 meropenem-exposed culture, read-out: MIC by FAST on Day 2) was 4 µg/mL. The MICFAST (K. pneumoniae isolate KS1, biological replicates) was 4 mg/L and 1 mg/L and 2 mg/L, the “FAST S/NS” value [9] was “S (S: MIC ≤2 mg/L)” and the MICFAST [9] was 1 mg/L (2×) and 2 mg/L. For the same molecule, the MIC (K. pneumoniae susceptible type strain ATCC 700603, read-out: isolate's MIC (new contouring focus formed, FIG. 3A)) was 0.25 µg/mL, the “susceptibility-associated signature by AFC bi-axial plot (FIG. 3B)” value (highly resistant clinical K. pneumoniae strain K8, clinically relevant meropenem concentrations) was “absence of susceptibility-associated signature” and the “FAST S/NS” value (isolate 194, Sweden, VIM) was “NS (NS = MIC >2 mg/L)”. The MICFAST (isolate 194, Sweden, VIM) was 16 mg/L, the “FAST S/NS” value (isolate 374, Sweden, VIM) was “NS (NS = MIC >2 mg/L)” and the MICFAST (isolate 374, Sweden, VIM) was 32 mg/L. The “FAST S/NS” value (isolate 3354, Australia) was “S (S = MIC ≤2 mg/L)”, the MICFAST (isolate 3354, Australia) was 0.5 mg/L and the “FAST S/NS” value (isolate 10924, Sweden, KPC) was “S (S = MIC ≤2 mg/L)”. For the same molecule, the MICFAST (isolate 10924, Sweden, KPC) was 0.5 mg/L, the “FAST S/NS” value (isolate 18397, Australia) was “S (S = MIC ≤2 mg/L)” and the MICFAST (isolate 18397, Australia) was at most 0.25 mg/L. The “FAST S/NS” value (isolate 43288, Australia) was “S (S = MIC ≤2 mg/L)”, the MICFAST (isolate 43288, Australia) was at most 0.25 mg/L and the “FAST S/NS” value (isolate 43292, Australia) was “S (S = MIC ≤2 mg/L)”. For the same molecule, the MICFAST (isolate 43292, Australia) was at most 0.25 mg/L, the “FAST S/NS” value (isolate 43358, Australia) was “S (S = MIC ≤2 mg/L)” and the MICFAST (isolate 43358, Australia) was at most 0.25 mg/L. For the same molecule, the “FAST S/NS” value (isolate 43854, Australia) was “S (S = MIC ≤2 mg/L)”, the MICFAST (isolate 43854, Australia) was at most 0.25 mg/L and the “FAST S/NS” value (isolate 44271, Australia) was “S (S = MIC ≤2 mg/L)”. For the same molecule, the MICFAST (isolate 44271, Australia) was 0.5 mg/L, the “FAST S/NS” value (isolate 51575, Sweden, ESBL) was “S (S = MIC ≤2 mg/L)” and the MICFAST (isolate 51575, Sweden, ESBL) was at most 0.25 mg/L. For the same molecule, the “FAST S/NS” value (isolate 70708, Sweden, KPC) was “NS (NS = MIC >2 mg/L)”, the MICFAST (isolate 70708, Sweden, KPC) was 32 mg/L and the “FAST S/NS” value (isolate 71076, Sweden, KPC) was “NS (NS = MIC >2 mg/L)”. The MICFAST (isolate 71076, Sweden, KPC) was 32 mg/L, the “FAST S/NS” value (isolate 200822, Sweden, KPC) was “NS (NS = MIC >2 mg/L)” and the MICFAST (isolate 200822, Sweden, KPC) was 8 mg/L. The “FAST S/NS” value (isolate 270902, England) was “S (S = MIC ≤2 mg/L)”, the MICFAST (isolate 270902, England) was at most 0.25 mg/L and the “FAST S/NS” value (isolate 500638, Sweden, pAmpC) was “S (S = MIC ≤2 mg/L)”. The MICFAST (isolate 500638, Sweden, pAmpC) was 2 mg/L, the “FAST S/NS” value (isolate 515870, Sweden, ESBL) was “S (S = MIC ≤2 mg/L)” and the MICFAST (isolate 515870, Sweden, ESBL) was at most 0.25 mg/L.
